# Results published in US4377592A, “Antiarrhythmic activity of cetiedil” (Innothera, priority 1979, dated 1983).
# Structures can show the parent of a compound that is named as a salt. Where two headings read alike, the source gives them in different places.
# Columns and labels:
# [1] = tested on: rabbit cornea oculo-palpebral reflex; type: in vivo; conditions: for TOTAL DEGREE OF ANAESTHESIA FOR 60 minutes: rabbit cornea, 1.00 g./100, HCl salt, total 13 no anaesthesia, 1300 complete; for local anaesthetic effect compared with cetiedil 0.5%: rabbit
# Text: For the purpose of this study, the classical technique of REGNIER J., Thesis Doct. […] This consists of repeating touching of the rabbit cornea until an oculo-palpebral reflex is obtained. It should be noted that […], in common with the reference substances, was used in the form of the HCl Salt.
# [2] = tested on: chloroform-induced ventricular fibrillation; conditions: mouse, chloroform test, IP; other substances from Linee thesis 1975; cited from earlier work
# [3] = tested on: isolated guinea-pig atrial; experiment: Stimulated isolated guinea pig atrial (technique of Dawes); type: cell-based
# Text: (§1) The technique of DAWES (modified by ALLIES ET AL.) was used with the isolated guinea-pig atrial, and the technique of DUCHENE-MARULLAZ, J. Pharmacol. Paris, 1970, 1, 539, in the anaesthetized dog. This method is used to study the permeability of atrio-ventricular conduction, and thus more precisely conduction at the level of Tawara's nod.
# in vivo = conditions: mouse, iv
# [4] = tested on: ventricular fibrillation induced by CaCl2; experiment: Calcium (CaCl2) induced ventricular fibrillation in the anaesthetized rat, Malinow's technique; type: in vivo; conditions: for index LD50/AD50 (ventricular fibrillation): Table 2; for RELATIVE ACTIVITY (ventricular fibrillation): Table 2, relative to cetiedil = 1; for RELATIVE ACTIVITY (death): Table 3, relative to cetiedil = 1
# Protocol: According to MALINOW, M. R., et coll. Acta. Physiol Latino. Americ.
# Using the anaesthetized rat, 200 mg/kg of CaCl2 was injected two minutes after the substances to be tested. The ECG was recorded continuously in lead II.
# [5] = tested on: polymorphous arrhythmias induced by adrenaline petrol-ether; experiment: Polymorphous arrhythmias induced in the anaesthetised guinea-pig by adrenaline and petrol ether; type: in vivo; conditions: for ED50: Cavia porcellus, ip, read-out: ED50 (dose decreasing by half the duration of the disturbances); for index I = LD50 IV/ED50: Table 1, adrenaline petrol-ether, guinea-pig ED50, mouse LD50; for RELATIVE ACTIVITY: Table 1, relative to cetiedil = 1
# Text: Adrenaline in high dosage is a powerful arrhythmogenic stimulus to a myocardia induced by petrol ether, as recognized in the guinea-pig by LE MARECHAL J., Thesis Doct.
# [6] = tested on: chloroform-induced ventricular fibrillation; experiment: Chloroform-induced ventricular fibrillation in the mouse; type: in vivo
# Text: In this technique first described by LAWSON, J. W. in J. Pharm. Exp. Ther. 1968, 160, 22 and Vargaftig, B. B. et al in Eur. J. Pharmacol. 1969, 6, 49, the inhalation of chloroform vapour produced in the mouse apnea followed by ventricular fibrillation.
# The mechanism of this technique remains unknown.
# rat aortic fragments = experiment: Contraction of rat aorta fragment induced by potassium depolarisation; type: cell-based; conditions: mean ± SD, potassium depolarisation
# Protocol: Fragments of aorta removed from rats are immersed in survival fluid in the presence of carbogene at 37° C. By modifying the ionic equilibrium of the survival medium, it was possible to study the effects of […] on contraction of the aortic fragments induced by depolarisation with potassium or calcium.
# [7] = tested on: atrio-ventricular conduction; experiment: Atrio-ventricular conduction in the anaesthetized dog (Duchene-Marullaz); type: in vivo
# Text: as §1
# [8] = tested on: ventricular tachycardia induced by Ouabain; experiment: Ouabain induced ventricular tachycardia in the dog (Lucchesi and Hardman); type: in vivo; conditions: at the average effective dose
# Text: The method used is that of […] and HARDMAN, J. Pharmacol. Exp. Ther. 1961, 132, 372-381. Ventricular tachycardia was obtained by the sequential administration of Ouabain until a permanent ventricular tachycardia developed. Following observation of the effect of the substance, the reappearance of this ventricular tachycardia following the injection of insulin was confirmed, thereby showing the persistence within the heart of a toxic dose of Ouabain (Average dose of Ouabain 71.25 γ kg IV).
# [9] = Rattus norvegicus, iv, read-out: AD50 protection against death
# [10] = Rattus norvegicus, iv, read-out: AD 50 protection against ventricular fibrillation
# [11] = anaesthetized rat, CaCl2 200 mg/kg IV two minutes after substance, read-out: AD 50 protection against ventricular fibrillation
# [12] = guinea-pig, urethane 1.2 g/kg IP, substance 5 minutes before intoxication
# [13] = mouse, chloroform vapour inhalation, IP, read-out: ED50
smiles,measurement,setting,value
COC(=O)[C@H]1[C@@H](OC(=O)c2ccccc2)C[C@@H]2CC[C@H]1N2C [COCAINE],TOTAL DEGREE OF ANAESTHESIA FOR 60 minutes,[1],706.4
same,local anaesthetic effect compared with cetiedil 0.5%,[1]; 1 p.100,same effect
CN1[C@@H]2CC[C@H]1C[C@@H](OC(=O)C(CO)c1ccccc1)C2 (stereo partly drawn) [Atropine],ED50,[2],100 mg/kg IP
COC(=O)[C@@H]1[C@H]2C[C@H]3c4[nH]c5ccccc5c4CCN3C[C@@H]2CC[C@@H]1O [Yohimbine],ED50,[2],10 mg/kg IP
CC(C)N(CCC(C(N)=O)(c1ccccc1)c1ccccn1)C(C)C (stereo not drawn) [DISOPYRAMIDE],% DECREASE SPONTANEOUS RATE,[3]; concentration 10^-5,8%
same,% DECREASE m.f.s. (maximum frequency followed by the atrial),[3]; concentration 10^-5,18%
same,% DECREASE SPONTANEOUS RATE,[3]; concentration 10^-6,6%
same,% DECREASE m.f.s. (maximum frequency followed by the atrial),[3]; concentration 10^-6,6%
CC[C@H]1[C@@H]2C[C@H]3[C@@H]4N(C)c5ccccc5[C@]45C[C@@H]([C@H]2[C@H]5O)N3[C@@H]1O [Ajmaline],LD50,in vivo,26 mg/kg
same,ED50,[4]; [9],> 5 mg/kg
same,ED50,[4]; [10],2.25 mg/kg
same,index LD50/AD50 (ventricular fibrillation),[4],"11,56"
same,RELATIVE ACTIVITY (ventricular fibrillation),[4],"0,62"
same,protection against death,"[4]; rat, dose of 5 mg/kg",none against death
same,protection against ventricular fibrillation,"[4]; rat, dose of 5 mg/kg",protected all of the animals against ventricular fibrillation
same,ED50,[5],0.6 mg/kg
same,index I = LD50 IV/ED50,[5],43.33
same,RELATIVE ACTIVITY,[5],0.91
same,ED50,"[6]; Mus musculus, ip",6.6 mg/kg
CC(C)NCC(O)COc1cccc2ccccc12 (stereo not drawn) [Propranolol],ED50,[4]; [9],3.9 mg/kg
same,RELATIVE ACTIVITY (ventricular fibrillation),[4],"0,36"
same,RELATIVE ACTIVITY (death),[4],0.35
same,ED50,[4]; [11],3.25 mg/kg
same,TOTAL DEGREE OF ANAESTHESIA FOR 60 minutes,[1],876.5
same,local anaesthetic effect compared with cetiedil 0.5%,[1]; in vivo,same effect
same,ED50,[5]; [12],0.38 mg/kg
same,RELATIVE ACTIVITY,[5],1.22
same,% DECREASE m.f.s. (maximum frequency followed by the atrial),[3]; concentration 10^-6,34%
same,% DECREASE m.f.s. (maximum frequency followed by the atrial),[3]; concentration 10^-7,7%
CN(C)CCCN1c2ccccc2CCc2ccccc21 [Imipramine],ED50,[2],30 mg/kg IP
CCN(CC)CCOC(=O)c1ccc(N)cc1 [PROCAINE],TOTAL DEGREE OF ANAESTHESIA FOR 60 minutes,[1],61.5
same,local anaesthetic effect compared with cetiedil 0.5%,[1]; 1 p.100,only half less active
same,pD'2 (mean),rat aortic fragments,2.55 ± 0.06
C=C[C@H]1C[N@@]2CC[C@H]1C[C@@H]2[C@@H](O)c1ccnc2ccc(OC)cc12 [Quinidine],LD50,in vivo,67 mg/kg
same,ED50,[4]; [9],8 mg/kg
same,ED50,[4]; [10],5.5 mg/kg
same,% DECREASE SPONTANEOUS RATE,[3]; concentration 10^-5,15%
same,% DECREASE m.f.s. (maximum frequency followed by the atrial),[3]; concentration 10^-5,25%
same,% DECREASE SPONTANEOUS RATE,[3]; concentration 10^-6,3%
same,% DECREASE m.f.s. (maximum frequency followed by the atrial),[3]; concentration 10^-6,10%
same,% DECREASE SPONTANEOUS RATE,[3]; concentration 10^-7,0%
same,effect on atrio-ventricular conduction after denervation,"[7]; anaesthetized dog, denervated",Depression of atrio-ventricular conduction is significant and proportional to the dose administered
same,effect on atrio-ventricular conduction,"[7]; anaesthetized dog, intact",not changed in the intact animal
same,chronotropic effect,[7]; dog,positive or negative action according to whether the dog is intact or denervated
same,ED50,[6]; [13],26 mg/kg
CCN(CC)CCNC(=O)c1ccc(N)cc1 [Procainamide],LD50,in vivo,105 mg/kg
same,ED50,[4]; [9],17 mg/kg
same,index LD50/AD50 (ventricular fibrillation),[4],"7,24"
same,RELATIVE ACTIVITY (ventricular fibrillation),[4],"0,39"
same,index LD50/AD50 (death),[4]; Table 3,6.18
same,RELATIVE ACTIVITY (death),[4],0.38
same,ED50,[4]; [11],14.5 mg/kg
same,ED50,[5]; [12],1.4 mg/kg
same,index I = LD50 IV/ED50,[5],75.00
same,RELATIVE ACTIVITY,[5],1.58
same,ED50,[6]; [13],80 mg/kg
"C=C[C@H]1C[N@@]2CC[C@H]1C[C@@H]2[C@@H](O)c1ccnc2ccc(OC)cc12 [Quinidine sulfate, reference compound]",duration of return to sinus rhythm,[8],less than 30 min
